# Measurements reported in article PMC4585835 (Scientific Reports, 2015).
# Like-named read-outs stand apart in the source and are kept apart here. Where a SMILES comes first, the peptide text is derived from it. [ ]: non-standard residue; d: D form. The star is where a group is joined. Stearoyl = CCCCCCCCCCCCCCCCCC(=O)*
# What was measured:
# Type in all cases: in vivo
# [1] = Pharmacokinetics in rats, i.v.; settings: rat
# Method: SD Rats were randomly divided into three groups (n = 5). […] All blood samples were immediately centrifuged at 5000 rpm for 5 min at room temperature, and the plasma obtained was stored at −20 °C before analysis. To the rat plasma (100 μL) was added 10 μL internal standard (80 ~ 100 ng/ml Carbamazepine), followed by mixing with 200 μL methanol with vortexing for 1 min. At this stage, certain amounts of proteins may precipitate out, thus this mixture was centrifuged at 12,000 rpm for 5 min at room temperature to achieve complete separation. The 20 μl supernatant was injected into a HPLC (Symbiosis, Spark, Holland; column: 50 mm × 2.1 mm, 5 μm, Agilent Eclipse Plus) –MS/MS system (ABI 4000 Q-Trap triple quadrupole mass spectrometer) equipped with electrospray ionization (ESI) source in the positive ion mode (Foster City, USA). The HPLC elution gradient was as follows: 0–0.5 min, 5–5% (B); 0.5–3 min, 5–95% (B); 3–4 min, 95–95% (B); 4–4.06 min, 95–5% (B); 4.06–6 min, 5–5% (B); the flow-rate was 0.4 ml/min; A was 0.1% formic acid/Waterl, B was 0.1% formic acid/methanol. The MS parameters were: CUR10Psi; Ion Spray Voltage (IS) 5500v; Collision activated dissociation (CAD) High, Gas1 = 50 psi, Gas2 = 50 psi, TEM = 500 °C.
# All three peptides remained stable in plasma during three freeze/thaw cycles, at room temperature for at least 2 h. The supernatant of plasma samples were also found to be stable for at least 24 h at 10 °C in the autosampler.
# The statistical significance of the difference among pharmacokinetic parameters was determined using the mean comparison Student’s t-test, and the resulting P values were lower than 0.05, which is considered to be statistically significant.
# [2] = tested on: rat carotid artery thrombosis; assay: Rat carotid artery thrombosis (occlusion time); settings: for occlusion time (OT): 30 min after administration
# Text: The carotid artery thrombosis in rats was induced by the method developed by Hladovec with minor modifications. At first, male SD Rats (180 ~ 220 g) were randomly divided into 5 groups (n = 8) and anesthetized by i.p. 20% ethyl urethane (1 g/kg). The right carotid artery was first carefully separated to give a 1.5 cm long open access, and then the stimulating electrode and the temperature electrode of BT 87–3 thrombosis radiometer (Baotou medical college, China) were linked to both ends of the artery. […] The time from the initiation of electric stimulation to the sudden drop of carotid temperature was recorded as occlusion time (OT), or thrombus formation time.
# rat blood = assay: Coagulation time (CT) of rat blood
# Method: CT was obtained using the modified Dale’s method. […] Thirty min after administration, blood samples were taken from the rat vein under eye ball with glass capillaries (20 μL), which were broken after 10 s, followed by a coagulation check. The time between blood extraction and blood coagulation in each capillary was recorded as coagulation time (CT).
# [3] = SD, plasma, iv, 1 umol/kg, 1 μmol/kg i.v., n = 5
compound,measurement,setting,value
CCCCCCCCCCCCCCCCCC(=O)NCCCC[C@H](NC(=O)CNC(=O)[C@@H]1CCCN1C(=O)[C@H](CCCNC(=N)N)NC(=O)[C@@H]1CCCN1C(=O)[C@H](N)Cc1ccccc1)C(=O)NCC(=O)NCC(=O)N[C@@H](CCC(N)=O)C(=O)NCC(=O)N[C@@H](CC(=O)O)C(=O)N[C@@H](Cc1ccccc1)C(=O)N[C@@H](CCC(=O)O)C(=O)N1CCC[C@H]1C(=O)N[C@H](C(=O)N1CCC[C@H]1C(=O)N[C@@H](CCC(=O)O)C(=O)N[C@@H](CC(=O)O)C(=O)N[C@@H](C)C(=O)N[C@@H](Cc1ccc(O)cc1)C(=O)N[C@@H](CC(=O)O)C(=O)N[C@@H](CCC(=O)O)C(N)=O)[C@@H](C)CC [Peptide S2] (H-[dF]PRPGK(Stearoyl)GGQGDFEPIPEDAYDE-NH2; N-terminus assumed),AUC(0-inf),[1]; [3],26.5 µM·h
same,Cmax,[1]; [3],10.1 ± 1.1 µM
same,clearance,[1]; [3],0.7 ± 0.1 mL/min/kg
same,AUC(0-t),"[1]; SD, plasma, iv, 1 umol/kg, 1 μmol/kg i.v., n = 5, read-out: AUC(0-t) (converted)",22.9 µM·h
same,Vd,"[1]; SD, plasma, iv, 1 umol/kg, 1 μmol/kg i.v., n = 5, read-out: Vss",0.146 ± 0.0155 L/kg
same,half-life,[1]; [3],3.54 ± 0.973 h
same,MRT last,"[1]; in vivo, iv, 1 umol/kg, 1 μmol/kg i.v., n = 5, read-out: MRT0-t (converted)",3.29 h
same,"half-life, fold longer than hirulog-1",[1],13.1 fold
same,"half-life, fold longer than peptide 1",[1],14.7 fold
same,AUC(0-t),"[1]; 1 μmol/kg i.v., n = 5",22.862 ± 3.463 µM·h
same,AUC(0-∞),"[1]; 1 μmol/kg i.v., n = 5",1590.6 ± 311.7 nmol·min/mL
same,occlusion time (OT),[2]; 0.5 mg/kg,979.88 ± 150.61 s
same,occlusion time (OT),[2]; 1.0 mg/kg,1063.75 ± 61.12 s
same,duration of antithrombotic activity (OT),"[2]; 1.0 mg/kg, OT at different time points",more than 8 h
same,occlusion time (OT),[2]; 2.0 mg/kg,1207.25 ± 137.82
same,anticoagulant activity (CT) compared with references,rat blood; 1.0 mg/kg peptide S2,superior to the 8 mg/kg hirulog-1 and 200 IU/kg heparin
same,coagulation time (CT) of rat blood,rat blood; 30 min after administration,significantly prolong
